Each structure is given as a SMILES string. Where two headings read alike, the source gives them in different places.

Data set [1] has as its system HCMV UL97-C480F. Briefly: HCMV reporter-based antiviral assay, drug-resistant mutant. Format: cell-based, human cytomegalovirus. Particulars: Human betaherpesvirus 5, read-out: Measured EC50 ref. drugs UL97-C480F. Here is the method: (§1) For the infection experiments, stocks of the following recombinant, reporter protein-expressing viruses (GFP or YFP (i.e., green or yellow fluorescent protein, respectively)) were propagated (in permissive cells), determined in their infectious titers performing the respective reporter assays, stored by aliquots at −80 °C, and used for the assessment of antiviral drug activities: human cytomegalovirus HCMV AD169-GFP (HFFs); murine cytomegalovirus MCMV C3X-GFP (MEFs); guinea pig cytomegalovirus GPCMV v403-GFP (GPEFs); human herpesvirus type 6A HHV-6A U1102-GFP (J-Jhan); herpes simplex virus type 1 HSV-1 166v VP22-GFP (HFFs); varicella zoster virus VZV Oka-GFP (HFFs); Epstein-Barr virus EBV Akata-GFP (Akata-BX1-GFP carrier cells; kindly provided by Lindsey Hutt-Fletcher and Rona Scott, Dept. Microbiol. Immunol., LSUHSC Univ., Shreveport, LA, USA); and Kaposi’s sarcoma-associated herpesvirus KSHV rKSHV.219-GFP/RFP (in iSLK.219 carrier cells).
(§2) For HCMV AD169-GFP infection, the replication assay was based on a seeding of 225,000 HFFs or 13,500 HFFs in 12 well or 96 well plates, respectively, which were then inoculated with HCMV AD169-GFP [55] at an MOI of 0.25 GFP-FU/mL/7 d for a 90 min period of inoculum–cell adsorption, followed by a medium refreshment including the immediate addition of antiviral compounds. At 7 d p.i., the infected HFFs were either directly fixed with 10% formalin for 20 min at 4 °C (when used for infection in the 96 well format) or lysed and transferred to 96 well plates (when used for infection in the 12 well format) so that the reporter of viral replication could be quantified by GFP fluorometry using a Perkin Elmer Victor X4 Multimode Plate Reader (Perkin Elmer, Waltham, MA, USA).
(§3) Due to the fact that the HCMV-encoded protein kinase pUL97 represents a functional and structural ortholog of the host CDKs (vCDK/pUL97), the viral mutants of ORF-UL97 were assessed for sensitivity against CDK7 inhibitors.

The test system of data set [2] is HCMV UL97-C592G. The description is as above. In kind it is cell-based, human cytomegalovirus. Particulars: Human betaherpesvirus 5, read-out: Measured EC50 ref. drugs UL97-C592G. How it is done: as §1, §2, §3
In data set [3] the test system is HCMV UL97-C603W. The data set is described as above. In kind it is cell-based, human cytomegalovirus. Particulars: Human betaherpesvirus 5, read-out: Measured EC50 ref. drugs UL97-C603W. Here is the method: as §1, §2, §3
The subject of data set [4] is HCMV UL97-F342S. The data set is described as above. Format: cell-based, human cytomegalovirus. The following applies: Human betaherpesvirus 5, read-out: Measured EC50 ref. drugs UL97-F342S. Here is the method:
as §1, §2, §3

Data set [5] deals with HCMV UL97-H411Y. The data set is described as above. Format: cell-based, human cytomegalovirus. Particulars: Human betaherpesvirus 5, read-out: Measured EC50 ref. drugs UL97-H411Y. Here is the method: as §1, §2, §3
The subject of data set [6] is HCMV UL97-H469V. The description is as above. In kind it is cell-based, human cytomegalovirus. The following applies: Human betaherpesvirus 5, read-out: Measured EC50 ref. drugs UL97-H469V. Here is the method:
as §1, §2, §3

The test system of data set [7] is HCMV UL97-H520Q. The description is as above. In kind it is cell-based, human cytomegalovirus. Particulars: Human betaherpesvirus 5, read-out: Measured EC50 ref. drugs UL97-H520Q. How it is done:
as §1, §2, §3

Data set [8] relates to HCMV UL97-L397R. The data set is described as above. Format: cell-based, human cytomegalovirus. The following applies: Human betaherpesvirus 5, read-out: Measured EC50 ref. drugs UL97-L397R. Here is the method:
as §1, §2, §3

Data set [9] relates to HCMV UL97-M460I. The data set is described as above. Particulars: Human betaherpesvirus 5, AD169, read-out: Measured EC50 ref. drugs UL97-M460I. In kind it is cell-based, human cytomegalovirus. How it is done:
as §1, §2, §3

In data set [10] the test system is HCMV UL97-T409M. The description is as above. Format: cell-based, human cytomegalovirus. The following applies: Human betaherpesvirus 5, read-out: Measured EC50 ref. drugs UL97-T409M. Here is the method:
as §1, §2, §3

The test system of data set [11] is HCMV UL97-H520Q. The arrangement: method as in PMID 31940472; key: R-high, high-level drug resistance; R-int, intermediate-level drug resistance; R-low, low-level drug resistance; S, drug sensitivity. The following applies: cited from earlier work.
A short description of data set [12]: Neutral Red uptake assay (NRA), iSLK.219 cells. In kind it is cell-based. Particulars: human, read-out: CC50 (KSHV-GFP/RFP system). How it is done:
The virus recombinants VZV Oka-GFP and rKSHV.219-GFP/RFP were used for the infection of HFFs (VZV) or were continuously passaged in iSLK.219 carrier cells (KSHV), respectively, and cell viability was determined by NRA performed with uninfected HFFs or uninduced iSLK.219 cells, respectively. (A,B) Schematic depiction of the assay systems performed in a 96 well plate format. […] For the VZV-GFP system, virus stock VZV Oka-GFP was applied as a cell-bound infectious inoculum. After a 90 min period of inoculum adsorption to the cell surfaces, antiviral compounds were added to the culture media at serial dilutions (DMSO served as a solvent control for drug treatment of infected cells, while mock-infected cells served as a negative control). For the KSHV-GFP/RFP system, iSLK.219 cell lytic replication of KSHV (RFP reporter signal) was induced by the addition of 0.05 or 0.5 µg/mL doxycycline (dox) to the culture media. Cultivated dox-induced iSLK.219 cells were treated with antiviral compounds added at serial dilutions (DMSO served as a positive infection solvent control, while dox-untreated mock cells served as a negative control). HFFs or iSLK.219 cells were harvested at 4 d p.i. or 1 d after treatment, respectively, fixed by a 10 min incubation with 10% formalin, washed with PBS, and used for quantitation of the GFP or RFP reporter signal by PicoMD counting (ImageXpress® Pico device, Molecular Devices LLC, San Jose, CA, USA), with data evaluation using CellReporterXpress® software (version 2.9.3.1183, Molecular Devices LLC) as described earlier in [63]. (C) The antiviral activity of the reference drugs was determined with the VZV-GFP system in the 96 well format. EC50 values refer to measurements in quadruplicate, and the mean values ± SD of two experimental replicates are given. (D) The antiviral activity of the reference drugs was determined with the KSHV-GFP/RFP system in the 96 well format. EC50 values refer to measurements in triplicate, and the mean values ± SD are given for each of the two depicted experimental replicates.

The EC50 is the concentration giving half of the maximal effect. With `Nc1ccn(C[C@@H](CO)OCP(=O)(O)O)c(=O)n1` [CDV, cidofovir], the EC50 in data set [1] is 0.4 µM; in [2] it was 0.4 µM; in data set [3], 0.41 µM; in data set [4], 0.19 µM; in [5], 0.42 µM; in data set [6], 0.18 µM. For the same molecule, the EC50 was 0.1 µM in [7], 0.34 µM in data set [8], 0.07 µM in data set [9] and 0.26 µM in [10]. Besides, in data set [11], the “Reported phenotype UL97-H520Q” value is “S”.
In the case of `Nc1nc(O)c2ncn(COC(CO)CO)c2n1` [GCV, ganciclovir], the CC50 in data set [12] (marked 0.05 μg/mL dox) and in [12] (marked 0.5 μg/mL dox) was > 100 µM each time. Moreover, the EC50 in data set [1] was 10.5 ± 2.2 µM; in data set [2], 4.67 ± 1.1 µM; in data set [3], 9.87 ± 1 µM; in data set [4], 17.1 ± 1.5 µM; in data set [5] it was 3.76 ± 0.6 µM; in [6], 1.22 ± 0.2 µM. The EC50 was 10.7 ± 0.7 µM in [7], 2.24 ± 0.5 µM in [8], 9.24 ± 3.3 µM in data set [9] and 1.98 ± 0.2 µM in [10]. Further, the “Reported phenotype UL97-H520Q” value in data set [11] was “R-high”.

The values above are taken from PMC10892818, “An Antiherpesviral Host-Directed Strategy Based on CDK7 Covalently Binding Drugs: Target-Selective, Picomolar-Dose, Cross-Virus Reactivity” (Pharmaceutics, 2024).
